≈ marks a conversion by molar mass, not a printed value.
Assays:
Halomonas aquamarina [1] = experiment: Bacterial adhesion assay (crystal violet, OD 595 nm); format: cell-based; conditions: Vreelandella aquamarina, 48 h incubation, 10–0.01 μg/mL tested, read-out: MIC against the adhesion of marine bacteria, H.a.
Description: (§1) Cyprid larvae of B. improvisus were reared in a laboratory cultivating system at Tjärnö Marine Biological Laboratory, University of Gothenburg, Sweden, as previously described by Berntsson et al. ([2000]). Four pure, but non-axenic, marine microalgae (obtained from Algobank, Caen, France) and 10 marine bacterial strains were used (Table 1) as representative microfoulers. These strains represent fouling species encountered in both estuarine and marine environments (Moodie et al. [2017b]). The bacteria were grown at 26 °C in a marine medium, composed of 0.5% peptone (neutralized bacteriological peptone, Oxoid Ltd.) in filtered (Whatman 1001–270, pore size 11 μm) natural seawater. Microalgae were grown and maintained at 22 °C in F/2 medium.
(§2) Bacterial strain adhesion and growth were determined according to the methods of Thabard et al. ([2011]). Bacterial suspensions (100-μL aliquots, 2 × 10^8 colony forming units/mL) were aseptically added to the compound containing microplate wells (10–0.01 μg/mL), and the plates were incubated for 48 h at 26 °C. Media only was used as a blank. Bacterial growth was monitored spectroscopically at 630 nm. The minimal inhibitory concentration (MIC) for bacterial growth was defined as the lowest concentration which results in a decrease in OD. After 48-h incubation time, the bacterial adhesion assay was conducted by emptying the wells and rinsing with sterile seawater (100 μL) to remove non-attached cells, and air-drying at room temperature. The residual bacterial biofilm was stained with aqueous crystal violet (100 μL, 0.3% v/v) and the OD measured at 595 nm (Sonak and Bhosle [1995]). […] If inhibition was observed, toxicity tests were conducted. The well contents were transferred into a flask of fresh media, and growth was measured after 5 days of additional incubation. The mode of action was deemed biostatic if an increase in OD was measured at 595 nm (Moodie et al. [2017a]).

Vibrio aestuarianus [2] = experiment: as above; format: cell-based; conditions: 48 h, read-out: MIC against the adhesion of marine bacteria, V.a.
Description: as §1, §2

Vibrio carchariae [3] = experiment: as above; format: cell-based; conditions: Vibrio harveyi, 48 h, read-out: MIC against the adhesion of marine bacteria, V.c.
Description: as §1, §2

Vibrio harveyi [4] = experiment: as above; format: cell-based; conditions: 48 h, read-out: MIC against the adhesion of marine bacteria, V.h.
Description: as §1, §2

Vibrio proteolyticus [5] = experiment: as above; format: cell-based; conditions: 48 h, read-out: MIC against the adhesion of marine bacteria, V.p.
Description: as §1, §2

marine bacteria [6] = experiment: Bacterial adhesion assay, whole panel of ten strains; format: cell-based, 10 marine bacterial strains; conditions: tested up to 10 μg/mL, active = MIC of 10 μg/mL or below
Description: as §1, §2

marine bacteria [7] = experiment: Bacterial growth assay, whole panel of ten strains; format: cell-based, 10 marine bacterial strains; conditions: tested up to 10 μg/mL
Description: as §1, §2

Halamphora coffeaeformis [8] = experiment: Microalgal adhesion assay (chlorophyll a); format: cell-based; conditions: Halamphora coffeiformis, 120 h, 5 days incubation, 10–0.01 μg/mL tested, read-out: MIC against the adhesion (A) of microalgae, H. coffeaformis
Description: as §1
(§3) Microplates containing the compounds in ranging concentrations (10–0.01 μg/mL) were prepared from MeOH stock solutions as previously described (Trepos et al. [2014]; Moodie et al. [2017a]). Microalgal stock solutions were prepared using the chlorophyll analysis methodology of Chambers et al. ([2011]). The pretreated microplate wells were treated with 100 μL of the algal stock solutions (0.1 mg chlorophyll a/mL). The plates were then incubated for 5 days at 20 °C under constant light exposure (140 μmol m^−2 s^−1). Both microalgal adhesion and growth inhibition were measured. Growth was determined by analysis of liberated chlorophyll a after centrifugation and methanol addition. Chlorophyll a was quantified fluorometrically. MIC value for algal growth was defined as the lowest concentration yielding a decrease in chlorophyll a content. Microalgal adhesion was determined in an analogous manner where the non-attached algal cells were removed prior to methanol addition (100 μL), releasing chlorophyll a from the remaining algal biofilms. The MIC for adhesion was defined as the lowest compound concentration causing a reduction in […]. Toxicity experiments were performed in an analogous manner to those described for the bacterial assays.

Cylindrotheca closterium [9] = experiment: Microalgal growth assay (chlorophyll a); format: cell-based; conditions: 120 h, 5 days incubation, 10–0.01 μg/mL tested, read-out: MIC against the growth (G) of microalgae, C. closterium
Description: as §1, §3

Halamphora coffeaeformis [10] = experiment: Microalgal growth assay (chlorophyll a); format: cell-based; conditions: Halamphora coffeiformis, 120 h, 5 days incubation, 10–0.01 μg/mL tested, read-out: MIC against the growth (G) of microalgae, H. coffeaformis
Description: as §1, §3

[11] = system: Pleurochrysis roscoffensis; experiment: Microalgal growth assay (chlorophyll a); format: cell-based; conditions: Chrysotila roscoffensis, 120 h, 5 days incubation, 10–0.01 μg/mL tested, read-out: MIC against the growth (G) of microalgae, P. roscoffensis
Description: as §1, §3

Porphyridium purpureum [12] = experiment: Microalgal growth assay (chlorophyll a); format: cell-based; conditions: 120 h, 5 days incubation, 10–0.01 μg/mL tested, read-out: MIC against the growth (G) of microalgae, P. purpureum
Description: as §1, §3

[13] = system: Balanus improvisus cyprid larvae; experiment: whole plant or invertebrate; format: in vivo; conditions: for IC50: Amphibalanus improvisus, 120 h, read-out: IC50 (cyprid settlement inhibition)
Outline: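 Freshly molted cyprids (18–22 per dish) exposed in filtered seawater to 0.1–10 μg/mL compound (0.1% DMSO controls) for 5 days at 20–25 °C. Settled, swimming and dead larvae counted by microscope; IC50 is the concentration preventing 50% settlement, n = 4, determined only for compounds inhibiting >50% at 5 μg/mL.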

microalgae = experiment: Microalgal adhesion and growth, whole panel of four species; format: cell-based, four marine microalgae; conditions: 10–0.01 μg/mL tested
Description: as §1, §3

Halomonas aquamarina [14] = experiment: Bacterial growth assay (OD 630 nm); format: cell-based; conditions: Vreelandella aquamarina, 48 h incubation, 10–0.01 μg/mL tested, read-out: MIC against the growth of marine bacteria, H.a.
Description: as §1, §2

[15] = system: Pseudoalteromonas elyakovii; experiment: Bacterial growth assay (OD 630 nm); format: cell-based; conditions: 48 h incubation, 10–0.01 μg/mL tested, read-out: MIC against the growth of marine bacteria, P.e.
Description: as §1, §2

Roseobacter litoralis = experiment: Bacterial growth assay (OD 630 nm); format: cell-based; conditions: 48 h incubation, 10–0.01 μg/mL tested, read-out: MIC against the growth of marine bacteria, R.l.
Description: as §1, §2

Shewanella putrefaciens = experiment: Bacterial growth assay (OD 630 nm); format: cell-based; conditions: 48 h incubation, 10–0.01 μg/mL tested, read-out: MIC against the growth of marine bacteria, S.p.
Description: as §1, §2

Vibrio aestuarianus [16] = experiment: Bacterial growth assay (OD 630 nm); format: cell-based; conditions: 48 h incubation, 10–0.01 μg/mL tested, read-out: MIC against the growth of marine bacteria, V.a.
Description: as §1, §2

Vibrio carchariae [17] = experiment: Bacterial growth assay (OD 630 nm); format: cell-based; conditions: Vibrio harveyi, 48 h incubation, 10–0.01 μg/mL tested, read-out: MIC against the growth of marine bacteria, V.c.
Description: as §1, §2

Vibrio harveyi [18] = experiment: Bacterial growth assay (OD 630 nm); format: cell-based; conditions: 48 h incubation, 10–0.01 μg/mL tested, read-out: MIC against the growth of marine bacteria, V.h.
Description: as §1, §2

Vibrio natriegens = experiment: Bacterial growth assay (OD 630 nm); format: cell-based; conditions: 48 h incubation, 10–0.01 μg/mL tested, read-out: MIC against the growth of marine bacteria, V.n.
Description: as §1, §2

Vibrio proteolyticus [19] = experiment: Bacterial growth assay (OD 630 nm); format: cell-based; conditions: 48 h incubation, 10–0.01 μg/mL tested, read-out: MIC against the growth of marine bacteria, V.p.
Description: as §1, §2

Cylindrotheca closterium [20] = experiment: Microalgal adhesion assay (chlorophyll a); format: cell-based; conditions: 120 h, 5 days incubation, 10–0.01 μg/mL tested, read-out: MIC against the adhesion (A) of microalgae, C. closterium
Description: as §1, §3

[21] = system: Pleurochrysis roscoffensis; experiment: Microalgal adhesion assay (chlorophyll a); format: cell-based; conditions: Chrysotila roscoffensis, 120 h, 5 days incubation, 10–0.01 μg/mL tested, read-out: MIC against the adhesion (A) of microalgae, P. roscoffensis
Description: as §1, §3

Porphyridium purpureum [22] = experiment: Microalgal adhesion assay (chlorophyll a); format: cell-based; conditions: 120 h, 5 days incubation, 10–0.01 μg/mL tested, read-out: MIC against the adhesion (A) of microalgae, P. purpureum
Description: as §1, §3

In the case of `COc1cc(OC)cc(C(Cc2ccccc2)=NO)c1` [Compound 15, 1-(3,5-Dimethoxyphenyl)-1-Hydroxyimino-2-Phenylethane], the MIC (Halomonas aquamarina [1]) is reported as 10 mg/L (≈ 36.9 µM), the MIC (Vibrio aestuarianus [2]) is reported as 10 mg/L (≈ 36.9 µM) and the MIC (Vibrio carchariae [3]) is reported as 10 mg/L (≈ 36.9 µM). The MIC (Vibrio harveyi [4]) was 10 mg/L (≈ 36.9 µM), the MIC (Vibrio proteolyticus [5]) was greater than 10 mg/L and the “MIC / activity against the adhesion of all bacteria tested” value (marine bacteria [6]) was “displayed inhibitory activities”. The “MIC / activity against the growth of all bacteria tested” value (marine bacteria [7]) was “^aCompound 15 was inactive against the growth of all bacteria tested up to 10 μg/mL”, the MIC (Halamphora coffeaeformis [8]) was 10 mg/L (≈ 36.9 µM) and the MIC (Cylindrotheca closterium [9]) was greater than 10 mg/L. For the same compound, the MIC (Halamphora coffeaeformis [10]) was greater than 10 mg/L, the MIC [11] was greater than 10 mg/L and the MIC (Porphyridium purpureum [12]) was greater than 10 mg/L. For the same compound, the IC50 [13] was 0.75 mg/L (≈ 2.76 µM) and the “MIC / activity against the attachment and growth of microalgae” value (microalgae) was “not significantly active”.
For `COc1ccc(CC(=NO)c2ccc(O)c(OC)c2)cc1` [Compound 11, 1-(3-methoxy-4-hydroxyphenyl)-1-hydroxyimino-2-(4’-methoxyphenyl)-ethane], the “MIC / activity against the adhesion of all bacteria tested” value (marine bacteria [6]) was “^aCompounds 7, 8, 10, 11, and 12 were inactive against the adhesion of all bacteria tested up to 10 μg/mL”, the MIC (Halomonas aquamarina [14]) was 10 mg/L (≈ 34.8 µM) and the MIC [15] was greater than 10 mg/L. The MIC (Roseobacter litoralis) was greater than 10 mg/L, the MIC (Shewanella putrefaciens) was greater than 10 mg/L and the MIC (Vibrio aestuarianus [16]) was greater than 10 mg/L. The MIC (Vibrio carchariae [17]) was greater than 10 mg/L, the MIC (Vibrio harveyi [18]) was greater than 10 mg/L and the MIC (Vibrio natriegens) was greater than 10 mg/L. It also gave an MIC (Vibrio proteolyticus [19]) greater than 10 mg/L, an MIC (Cylindrotheca closterium [20]) greater than 10 mg/L and an MIC [21] greater than 10 mg/L. It also gave an MIC (Porphyridium purpureum [22]) greater than 10 mg/L, an MIC (Cylindrotheca closterium [9]) of 10 mg/L (≈ 34.8 µM) and an MIC (Halamphora coffeaeformis [10]) greater than 10 mg/L. It also gave an MIC [11] of 10 mg/L (≈ 34.8 µM), an MIC (Porphyridium purpureum [12]) of 10 mg/L (≈ 34.8 µM) and an IC50 [13] greater than 5 mg/L. The “inhibition of cyprid settlement in the initial screen” value ([13]; B. improvisus, at 5.0 μg/mL) was “inactive” and the “Toxicity (%) (dead cyprids)” value ([13]; Balanus improvisus, in vivo, 5 days, 5 μg/mL) was 5.3%.
